Measurements published in publication PMC7347136 (PLoS ONE, 2020).

Key:
Assay in all cases: Carna kinase panel screen
Format in all cases: biochemical
Details in all cases: read-out: % Inhibition ± SD
AKT3 = target: T1, AKT3 (Homo sapiens, UniProt Q9Y243)
T1 construct: purchased Carna Biosciences
How it was run: (§1)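 Each compound was tested at 10 concentrations with ATP set close to its Km value. Percentage inhibition at each concentration was calculated and the IC50 derived by four-parameter logistic fitting.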

AMPKa1 = target: T2, AMPKa1 (Homo sapiens, UniProt Q13131)
T2 construct: purchased Carna Biosciences
How it was run: as §1

AurB = target: T3, AurB (Homo sapiens, UniProt Q96GD4)
T3 construct: purchased Carna Biosciences
How it was run: as §1

BRAF = target: T4, BRAF (Homo sapiens, UniProt P15056)
T4 construct: purchased Carna Biosciences
How it was run: as §1

BRK = target: T5, BRK (Homo sapiens, UniProt Q13882)
T5 construct: purchased Carna Biosciences
How it was run: as §1

BRSK2 = target: T6, BRSK2 (Homo sapiens, UniProt Q8IWQ3)
T6 construct: purchased Carna Biosciences
How it was run: as §1

CSK = target: T7, CSK (Homo sapiens, UniProt P41240)
T7 construct: purchased Carna Biosciences
How it was run: as §1

CaMK1d = target: T8, CaMK1d (Homo sapiens, UniProt Q8IU85)
T8 construct: purchased Carna Biosciences
How it was run: as §1

DCAMKL2 = target: T9, DCAMKL2 (Homo sapiens, UniProt Q8N568)
T9 construct: purchased Carna Biosciences
How it was run: as §1

DDR1 = target: T10, DDR1 (Homo sapiens, UniProt Q08345)
T10 construct: purchased Carna Biosciences
How it was run: as §1

DDR2 = target: T11, DDR2 (Homo sapiens, UniProt Q16832)
T11 construct: purchased Carna Biosciences
How it was run: as §1

EphA6 = target: T12, EphA6 (Homo sapiens, UniProt Q9UF33)
T12 construct: purchased Carna Biosciences
How it was run: as §1

EphB1 = target: T13, EphB1 (Homo sapiens, UniProt P54762)
T13 construct: purchased Carna Biosciences
How it was run: as §1

EphB3 = target: T14, EphB3 (Homo sapiens, UniProt P54753)
T14 construct: purchased Carna Biosciences
How it was run: as §1

Erk2 = target: T15, Erk2 (Homo sapiens, UniProt P28482)
T15 construct: purchased Carna Biosciences
How it was run: as §1

FRK = target: T16, FRK (Homo sapiens, UniProt P42685)
T16 construct: purchased Carna Biosciences
How it was run: as §1

HCK = target: T17, HCK (Homo sapiens, UniProt P08631)
T17 construct: purchased Carna Biosciences
How it was run: as §1

IGF1R = target: T18, IGF1R (Homo sapiens, UniProt P08069)
T18 construct: purchased Carna Biosciences
How it was run: as §1

IKKe = target: T19, IKKe (Homo sapiens, UniProt Q14164)
T19 construct: purchased Carna Biosciences
T19 sequence (Q14164 whole entry): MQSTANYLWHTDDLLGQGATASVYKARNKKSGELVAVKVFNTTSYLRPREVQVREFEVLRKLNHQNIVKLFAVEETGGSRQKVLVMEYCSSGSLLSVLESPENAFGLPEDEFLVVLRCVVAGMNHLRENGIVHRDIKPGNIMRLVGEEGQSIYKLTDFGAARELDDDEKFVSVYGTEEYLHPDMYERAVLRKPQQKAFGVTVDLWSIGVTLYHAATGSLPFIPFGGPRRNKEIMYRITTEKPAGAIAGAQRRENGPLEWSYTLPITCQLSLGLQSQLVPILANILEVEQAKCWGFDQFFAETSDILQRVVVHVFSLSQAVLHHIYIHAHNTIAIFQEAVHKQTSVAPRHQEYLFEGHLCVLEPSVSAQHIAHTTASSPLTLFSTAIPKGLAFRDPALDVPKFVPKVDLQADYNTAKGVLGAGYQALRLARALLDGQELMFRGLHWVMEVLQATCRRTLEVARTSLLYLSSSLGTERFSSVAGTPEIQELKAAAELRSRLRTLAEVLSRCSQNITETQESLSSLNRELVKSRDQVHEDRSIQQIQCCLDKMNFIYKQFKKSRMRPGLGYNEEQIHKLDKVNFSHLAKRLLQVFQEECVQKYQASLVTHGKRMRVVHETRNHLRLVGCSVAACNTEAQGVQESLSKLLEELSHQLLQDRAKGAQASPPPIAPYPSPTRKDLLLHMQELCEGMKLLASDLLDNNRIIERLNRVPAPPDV
How it was run: as §1

LOK = target: T20, LOK (Homo sapiens, UniProt O94804)
T20 construct: purchased Carna Biosciences
How it was run: as §1

MAP2K1 = target: T21, MAP2K1 (Homo sapiens, UniProt Q02750)
T21 construct: purchased Carna Biosciences
How it was run: as §1

MER = target: T22, MER (Homo sapiens, UniProt Q12866)
T22 construct: purchased Carna Biosciences
T22 sequence (Q12866 21-999): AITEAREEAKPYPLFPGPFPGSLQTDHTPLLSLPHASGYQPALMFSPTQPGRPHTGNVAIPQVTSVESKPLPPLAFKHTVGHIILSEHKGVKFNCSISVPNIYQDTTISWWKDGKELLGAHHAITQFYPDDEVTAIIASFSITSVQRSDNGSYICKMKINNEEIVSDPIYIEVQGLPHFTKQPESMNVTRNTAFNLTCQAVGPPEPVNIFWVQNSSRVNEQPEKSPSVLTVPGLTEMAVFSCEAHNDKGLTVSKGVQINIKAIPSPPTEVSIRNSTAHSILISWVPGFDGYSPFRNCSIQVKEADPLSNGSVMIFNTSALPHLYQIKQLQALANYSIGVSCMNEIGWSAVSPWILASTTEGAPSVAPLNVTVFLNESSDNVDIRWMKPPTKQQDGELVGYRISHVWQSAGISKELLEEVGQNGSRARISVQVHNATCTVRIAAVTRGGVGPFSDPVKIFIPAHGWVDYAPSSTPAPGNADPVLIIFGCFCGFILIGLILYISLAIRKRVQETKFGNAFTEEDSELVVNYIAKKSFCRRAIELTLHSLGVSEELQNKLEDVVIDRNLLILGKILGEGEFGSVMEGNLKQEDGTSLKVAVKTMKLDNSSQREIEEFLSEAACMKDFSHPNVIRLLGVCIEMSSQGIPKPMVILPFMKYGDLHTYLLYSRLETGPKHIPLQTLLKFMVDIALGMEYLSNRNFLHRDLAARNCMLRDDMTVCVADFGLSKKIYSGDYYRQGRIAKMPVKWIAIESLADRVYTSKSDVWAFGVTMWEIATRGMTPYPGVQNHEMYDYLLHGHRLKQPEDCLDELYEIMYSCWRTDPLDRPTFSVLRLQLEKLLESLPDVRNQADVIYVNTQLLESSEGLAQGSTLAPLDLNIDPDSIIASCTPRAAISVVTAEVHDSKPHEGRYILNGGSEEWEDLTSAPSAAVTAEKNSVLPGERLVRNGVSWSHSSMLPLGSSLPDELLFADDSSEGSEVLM
How it was run: as §1

MGC42105 = target: T23, MGC42105 (Homo sapiens, UniProt Q8IY84)
T23 construct: purchased Carna Biosciences
How it was run: as §1

MLK3 = target: T24, MLK3 (Homo sapiens, UniProt Q16584)
T24 construct: purchased Carna Biosciences
How it was run: as §1

MNK1 = target: T25, MNK1 (Homo sapiens, UniProt Q9BUB5)
T25 construct: purchased Carna Biosciences
How it was run: as §1

MNK2 = target: T26, MNK2 (Homo sapiens, UniProt Q9HBH9)
T26 construct: purchased Carna Biosciences
How it was run: as §1

PAK6 = target: T27, PAK6 (Homo sapiens, UniProt Q9NQU5)
T27 construct: purchased Carna Biosciences
How it was run: as §1

PDGFRa[T674I] = target: T28, PDGFRa[T674I] (Homo sapiens, UniProt P16234, T674I)
T28 construct: purchased Carna Biosciences
How it was run: as §1

PEK = target: T29, PEK (Homo sapiens, UniProt Q9NZJ5)
T29 construct: purchased Carna Biosciences
How it was run: as §1

PKACa = target: T30, PKACa (Homo sapiens, UniProt P17612)
T30 construct: purchased Carna Biosciences
How it was run: as §1

PKCa = target: T31, PKCa (Homo sapiens, UniProt P17252)
T31 construct: purchased Carna Biosciences
How it was run: as §1

PKCb2 = target: T32, PKCb2 (Homo sapiens, UniProt P05771)
T32 construct: purchased Carna Biosciences
T32 sequence (P05771 1-673 isoform P05771-2): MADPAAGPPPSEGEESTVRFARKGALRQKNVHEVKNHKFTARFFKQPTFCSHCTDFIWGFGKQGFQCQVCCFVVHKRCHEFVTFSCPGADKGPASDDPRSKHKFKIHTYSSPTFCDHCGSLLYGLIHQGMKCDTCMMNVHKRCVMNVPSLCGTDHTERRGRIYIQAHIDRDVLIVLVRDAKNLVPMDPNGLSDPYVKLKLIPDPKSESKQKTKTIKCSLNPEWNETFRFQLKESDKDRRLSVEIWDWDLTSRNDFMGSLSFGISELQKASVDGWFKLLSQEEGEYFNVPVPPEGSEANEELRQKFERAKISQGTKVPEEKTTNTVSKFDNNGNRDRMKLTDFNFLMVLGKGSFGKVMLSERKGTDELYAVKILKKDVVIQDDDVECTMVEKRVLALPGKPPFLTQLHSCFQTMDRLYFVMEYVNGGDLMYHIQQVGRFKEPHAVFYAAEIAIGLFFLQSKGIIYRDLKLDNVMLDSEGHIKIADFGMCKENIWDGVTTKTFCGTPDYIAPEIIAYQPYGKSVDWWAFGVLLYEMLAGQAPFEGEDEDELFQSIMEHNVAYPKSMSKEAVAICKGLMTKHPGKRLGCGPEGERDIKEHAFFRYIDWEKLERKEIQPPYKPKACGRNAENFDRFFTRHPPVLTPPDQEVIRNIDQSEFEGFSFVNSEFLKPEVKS
How it was run: as §1

PKCq = target: T33, PKCq (Homo sapiens, UniProt Q04759)
T33 construct: purchased Carna Biosciences
How it was run: as §1

PKD2 = target: T34, PKD2 (Homo sapiens, UniProt Q9BZL6)
T34 construct: purchased Carna Biosciences
How it was run: as §1

PKR = target: T35, PKR (Homo sapiens, UniProt P19525)
T35 construct: purchased Carna Biosciences
T35 sequence (P19525 whole entry): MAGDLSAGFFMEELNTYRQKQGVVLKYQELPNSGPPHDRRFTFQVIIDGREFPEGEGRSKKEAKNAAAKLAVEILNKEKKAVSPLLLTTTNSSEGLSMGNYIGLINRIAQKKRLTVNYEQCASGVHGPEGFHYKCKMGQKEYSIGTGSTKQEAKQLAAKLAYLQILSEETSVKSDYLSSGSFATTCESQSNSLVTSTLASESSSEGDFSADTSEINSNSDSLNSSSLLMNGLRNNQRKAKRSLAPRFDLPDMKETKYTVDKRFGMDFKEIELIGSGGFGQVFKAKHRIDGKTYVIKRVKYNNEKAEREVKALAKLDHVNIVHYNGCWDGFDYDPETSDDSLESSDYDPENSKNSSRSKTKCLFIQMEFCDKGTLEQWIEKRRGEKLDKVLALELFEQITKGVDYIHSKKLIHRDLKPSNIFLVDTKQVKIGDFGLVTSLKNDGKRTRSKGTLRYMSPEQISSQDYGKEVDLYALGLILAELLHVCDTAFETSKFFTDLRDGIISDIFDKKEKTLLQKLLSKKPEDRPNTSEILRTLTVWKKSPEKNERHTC
How it was run: as §1

PRKX = target: T36, PRKX (Homo sapiens, UniProt P51817)
T36 construct: purchased Carna Biosciences
How it was run: as §1

RSK4 = target: T37, RSK4 (Homo sapiens, UniProt Q9UK32)
T37 construct: purchased Carna Biosciences
T37 sequence (Q9UK32 whole entry): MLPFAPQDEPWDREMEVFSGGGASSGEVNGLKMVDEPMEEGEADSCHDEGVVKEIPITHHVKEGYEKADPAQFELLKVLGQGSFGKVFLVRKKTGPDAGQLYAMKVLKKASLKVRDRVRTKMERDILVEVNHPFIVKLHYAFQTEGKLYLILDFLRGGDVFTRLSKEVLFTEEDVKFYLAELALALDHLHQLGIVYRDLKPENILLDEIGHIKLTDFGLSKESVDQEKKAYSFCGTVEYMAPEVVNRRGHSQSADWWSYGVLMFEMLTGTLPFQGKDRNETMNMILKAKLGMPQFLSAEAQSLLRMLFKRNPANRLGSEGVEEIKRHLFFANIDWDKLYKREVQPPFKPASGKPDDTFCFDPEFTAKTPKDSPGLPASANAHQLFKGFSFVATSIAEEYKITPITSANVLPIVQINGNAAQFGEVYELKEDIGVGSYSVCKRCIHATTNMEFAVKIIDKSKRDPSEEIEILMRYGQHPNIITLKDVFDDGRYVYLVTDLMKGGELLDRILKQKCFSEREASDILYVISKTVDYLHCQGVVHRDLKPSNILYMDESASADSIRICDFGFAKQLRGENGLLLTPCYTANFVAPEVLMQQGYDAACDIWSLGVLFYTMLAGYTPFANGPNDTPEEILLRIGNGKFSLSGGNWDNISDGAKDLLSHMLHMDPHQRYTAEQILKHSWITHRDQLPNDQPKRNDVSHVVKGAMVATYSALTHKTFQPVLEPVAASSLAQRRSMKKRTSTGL
How it was run: as §1

SLK = target: T38, SLK (Homo sapiens, UniProt Q9H2G2)
T38 construct: purchased Carna Biosciences
How it was run: as §1

SRPK1 = target: T39, SRPK1 (Homo sapiens, UniProt Q96SB4)
T39 construct: purchased Carna Biosciences
How it was run: as §1

p38b = target: T40, p38b (Homo sapiens, UniProt Q15759)
T40 construct: purchased Carna Biosciences
How it was run: as §1

p38d = target: T41, p38d (Homo sapiens, UniProt O15264)
T41 construct: purchased Carna Biosciences
How it was run: as §1

p38g = target: T42, p38g (Homo sapiens, UniProt P53778)
T42 construct: purchased Carna Biosciences
How it was run: as §1

skMLCK = target: T43, skMLCK (Homo sapiens, UniProt Q9H1R3)
T43 construct: purchased Carna Biosciences
T43 sequence (Q9H1R3 whole entry): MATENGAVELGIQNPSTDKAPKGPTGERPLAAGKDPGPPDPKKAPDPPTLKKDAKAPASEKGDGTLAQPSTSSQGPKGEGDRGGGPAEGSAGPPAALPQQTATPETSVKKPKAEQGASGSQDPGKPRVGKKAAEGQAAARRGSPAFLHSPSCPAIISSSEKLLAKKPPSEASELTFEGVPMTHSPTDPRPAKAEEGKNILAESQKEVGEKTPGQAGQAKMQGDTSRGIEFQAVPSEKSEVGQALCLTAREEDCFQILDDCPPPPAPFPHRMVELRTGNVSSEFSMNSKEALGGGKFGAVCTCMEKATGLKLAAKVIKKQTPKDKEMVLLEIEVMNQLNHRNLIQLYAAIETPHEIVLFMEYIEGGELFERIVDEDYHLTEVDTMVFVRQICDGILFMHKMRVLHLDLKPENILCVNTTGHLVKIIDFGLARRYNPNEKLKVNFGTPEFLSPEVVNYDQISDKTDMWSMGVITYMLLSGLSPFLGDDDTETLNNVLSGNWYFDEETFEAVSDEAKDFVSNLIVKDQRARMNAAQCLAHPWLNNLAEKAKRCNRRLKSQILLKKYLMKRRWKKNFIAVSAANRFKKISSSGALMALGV
How it was run: as §1

CC[C@H](Nc1nc(NCc2cnc(C)cc2C)c2ncn(C(C)C)c2n1)[C@@H](C)O [Fadraciclib, 2-pentanol, 3-[[6-[[(4,6-dimethyl-3-pyridinyl)methyl]amino]-9-(1-methylethyl)-9Hpurin-2-yl]amino]-, (2R,3S)]
inhibition at 1 µM (AKT3): 2.4 ± 0.3%
inhibition at 1 µM (AMPKa1): -3.8%
inhibition at 1 µM (AurB): 4.2 ± 0.2%
inhibition at 1 µM (BRAF): -8.4 ± 1%
inhibition at 1 µM (BRK): 2.4 ± 0.1%
inhibition at 1 µM (BRSK2): 1.1%
inhibition at 1 µM (CSK): -18.7 ± 0.4%
inhibition at 1 µM (CaMK1d): -14.5 ± 0.1%
inhibition at 1 µM (DCAMKL2): -12.4 ± 0.1%
inhibition at 1 µM (DDR1): -9.3 ± 0.1%
inhibition at 1 µM (DDR2): -9.9 ± 0.1%
inhibition at 1 µM (EphA6): 5.7 ± 0.3%
inhibition at 1 µM (EphB1): 3.9 ± 0.1%
inhibition at 1 µM (EphB3): 0%
inhibition at 1 µM (Erk2): 19.6 ± 0.8%
inhibition at 1 µM (FRK): 3.6%
inhibition at 1 µM (HCK): -4.9 ± 0.1%
inhibition at 1 µM (IGF1R): -17.1 ± 0.2%
inhibition at 1 µM (IKKe): 2.5 ± 0.1%
inhibition at 1 µM (LOK): -23.8 ± 0.3%
inhibition at 1 µM (MAP2K1): -6.8 ± 0.1%
inhibition at 1 µM (MER): -9.1 ± 0.1%
inhibition at 1 µM (MGC42105): -7.3 ± 0.1%
inhibition at 1 µM (MLK3): -4.9 ± 0.4%
inhibition at 1 µM (MNK1): -13.1 ± 1.6%
inhibition at 1 µM (MNK2): -4.3 ± 0.1%
inhibition at 1 µM (PAK6): -5.4%
inhibition at 1 µM (PDGFRa[T674I]): -11.4 ± 0.2%
inhibition at 1 µM (PEK): 0.3%
inhibition at 1 µM (PKACa): -0.8%
inhibition at 1 µM (PKCa): 17.8 ± 0.5%
inhibition at 1 µM (PKCb2): -14.3 ± 0.1%
inhibition at 1 µM (PKCq): 0.7%
inhibition at 1 µM (PKD2): -13.4 ± 0.6%
inhibition at 1 µM (PKR): 1.1%
inhibition at 1 µM (PRKX): -4.2%
inhibition at 1 µM (RSK4): 6 ± 0.2%
inhibition at 1 µM (SLK): 2.5 ± 0.1%
inhibition at 1 µM (SRPK1): 5.9 ± 0.2%
inhibition at 1 µM (p38b): -19 ± 0.2%
inhibition at 1 µM (p38d): -16 ± 0.6%
inhibition at 1 µM (p38g): -0.6%
inhibition at 1 µM (skMLCK): -9.8 ± 1.1%
